# According to US20160362416A1, “ANTIVIRAL COMPOUNDS” (Gilead Sciences, Inc., priority 2012, published 2016):
# What was measured:
# [1] = IV and PO single dose pharmacokinetic studies in SD rats; type: in vivo; settings: Sprague-Dawley, rat, plasma, male SD rats, IV infusion 1 mg/kg, oral gavage 2 mg/kg, read-out: Rat % F
# Method in brief: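 Fasted male Sprague-Dawley rats (n=3/group) dosed IV by 30-min jugular infusion at 1 mg/kg or by oral gavage at 2 mg/kg, in ethanol/PEG 400 vehicles at pH 2.0–2.2. Serial plasma to 24 h quantified by LC/MS/MS (SRM); non-compartmental analysis, linear-trapezoidal AUC, %F as oral vs IV AUC.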
# [2] = test system: Y93H in genotype 3a NS5A replicon; test: Resistance mutant replicon assay, genotype 3a NS5A Y93H; type: cell-based, HCV; settings: Hepatitis C virus, read-out: 3a Y93H (nM)
# Method in brief: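 Mutant NS5A replicons (1a or 1b Pi-RLuc backbone; 3a NS5A in chimeric 1b) made by site-directed mutagenesis, RNA transiently transfected into Huh-7-derived cured-51 cells. Cells treated with 3-fold serial dilutions for 72 h; Renilla luciferase read; EC50 by non-linear regression.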
# [3] = test system: NS5A chimeric genotype 2a JFH-1 replicon with genotype 2a J6 strain NS5A gene (M31); test: HCV genotype 2a J6 NS5A chimeric replicon assay, transient (t); type: cell-based; settings: Hepatitis C virus, 72 h, read-out: 2a J6 (t) (nM)
# [4] = test system: NS5A chimeric genotype 2a JFH-1 replicon with genotype 2b MD2b-1 strain NS5A gene (M31); test: HCV genotype 2b NS5A chimeric replicon assay, transient (t); type: cell-based; settings: Hepatitis C virus, 72 h, read-out: 2b (t) (nM)
# Method in brief: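 Stable 1b Con1 RLuc replicon cells, or Huh-Lunet cells transiently transfected with chimeric replicons (Con1 backbone carrying 3a S52 or 4a ED43 NS5A; JFH-1 backbone carrying 2b MD2b-1 NS5A, M31), treated with 3-fold dilutions for 72 h. Renilla luciferase read after lysis; EC50 by non-linear regression.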
# [5] = test system: Q30R in genotype 1a NS5A replicon; test: Resistance mutant replicon assay, genotype 1a NS5A Q30R; type: cell-based, HCV; settings: Hepatitis C virus, read-out: 1a Q30R (nM)
# Method: Evaluation of cell-based anti-HCV activity: Antiviral potency (EC50) was determined using a Renilla luciferase (RLuc)-based HCV replicon reporter assay. To perform the assay for genotype 1 and 2a JFH-1, stable HCV 1a RLuc replicon cells (harboring a dicistronic genotype 1a H77 replicon that encodes a RLuc reporter), stable HCV lb RLuc replicon cells (harboring a dicistronic genotype 1b Conl replicon that encodes a RLuc reporter), or stable HCV 2a JFH-1 Rluc replicon cells (harboring a dicistronic genotype 2a JFH-1 replicon that encodes a RLuc reporter; with L31 present in NS5A) were dispensed into 384-well plates for EC50 assays. To perform the assay for genotype 2a (with M31 present in NS5A) or 2b, NS5A chimeric genotype 2a JFH-1 replicons that encodes a RLuc-Neo reporter and either genotype 2a J6 strain NS5A gene or genotype 2b MD2b-1 strain NS5A gene (both with M31 present) respectively, were either transiently transfected (t) into Huh-Lunet cells or were established as stably replicating replicon cells (s) is provided. Either cells were dispensed into 384-well plates for EC50 assays. To perform the assay for genotype 3 and 4, NS5A chimeric genotype 1b Conl replicons that encodes a Pi-RLuc reporter and either genotype 3a S52 strain NS5A gene or genotype 4a ED43 strain NS5A gene respectively, were transiently transfected (t) into Huh-Lunet cells, which were subsequently dispensed into 384-well plates. Compounds were dissolved in DMSO at a concentration of 10 mM and diluted in DMSO either manually or using an automated pipeting instrument. Serially 3-fold diluted compounds were either manually mixed with cell culture media and added to the seeded cells or directly added to the cells using an automated instrument. DMSO was used as a negative (solvent; no inhibition) control, and the protease inhibitor ITMN-191 was included at a concentration >100×EC50 as a positive control. 72 hours later, cells were lysed and Renilla luciferase activity quantified as recommended by the manufacturer (Promega-Madison, Wis.). Non-linear regression was performed to calculate EC50 values.
# To determine the antiviral potency (EC50) against resistance mutants, resistance mutations, including M28T, Q30R, Q30H, Q30E, L31M, Y93C, Y93H, and Y93N in genotype 1a NS5A, Y93H and L31V/Y93H in genotype 1b NS5A, and Y93H for in genotype 3a NS5A, were introduced individually into either 1a Pi-Rluc or 1b Pi-Rluc replicons by site directed mutagenesis. Replicon RNA of each resistant mutant was transiently transfected into Huh-7-derived cured-51 cells and antiviral potency was determined on these transfected cells as described above.
Compound,bioavailability [1],EC50 [2],EC50 [3],EC50 [4],EC50 [5]
"CC[C@H](C)[C@H](NC(=O)OC)C(=O)N1[C@@H](C)CC[C@H]1c1ncc(-c2ccc3c(c2)COc2cc4c(ccc5nc([C@@H]6CC[C@H](C)N6C(=O)[C@@H](NC(=O)OC)C6CCOCC6)[nH]c54)cc2-3)[nH]1 [Comp 4, reference compound]",22.1%,0.695 nM,0.026 nM,,
"COC(=O)N[C@H](C(=O)N1[C@@H](C)CC[C@H]1c1ncc(-c2ccc3c(c2)COc2cc4c(ccc5nc([C@@H]6CC[C@H](C)N6C(=O)[C@@H](NC(=O)OC)C6CC(C)O[C@H](C)C6)[nH]c54)cc2-3)[nH]1)C(C)C (stereo in doubt) [Example AQ, Methyl {(2S)-1-[(2S,5S)-2-(5-{2-[(2S,5S)-1-{(2S)-2-[(2R,6R)-2,6-dimethyltetrahydro-2H-pyran-4-yl]-2-[(methoxycarbonyl)amino]acetyl}-5-methylpyrrolidin-2-yl]-1,11-dihydroisochromeno[4′,3′:6,7]naphtho[1,2-d]imidazol-9-yl}-1H-imidazol-2-yl)-5-methylpyrrolidin-1-yl]-3-methyl-1-oxobutan-2-yl}carbamate]",22.9%,0.703 nM,0.011 nM,0.016 nM,
"CC[C@H](C)[C@H](NC(=O)OC)C(=O)N1[C@@H](C)CC[C@H]1c1ncc(-c2ccc3c(c2)COc2cc4c(ccc5nc([C@@H]6CC[C@H](C)N6C(=O)[C@@H](NC(=O)OC)C6C[C@@H](C)O[C@H](C)C6)[nH]c54)cc2-3)[nH]1 (stereo partly drawn) [Example AA, Methyl {(2S,3S)-1-[(2S,5S)-2-(5-{2-[(2S,5S)-1-{(2S)-2-[(2R,6R)-2,6-dimethyltetrahydro-2H-pyran-4-yl]-2-[(methoxycarbonyl)amino]acetyl}-5-methylpyrrolidin-2-yl]-1,11-dihydroisochromeno[4′,3′:6,7]naphtho[1,2-d]imidazol-9-yl}-1H-imidazol-2-yl)-5-methylpyrrolidin-1-yl]-3-methyl-1-oxopentan-2-yl}carbamate]",28.1%,0.544 nM,0.006 nM,0.014 nM,
"COC(=O)N[C@H](C(=O)N1[C@@H](C)CC[C@H]1c1ncc(-c2ccc3c(c2)COc2cc4c(ccc5nc([C@@H]6CC[C@H](C)N6C(=O)[C@@H](NC(=O)OC)C6C[C@@H](C)O[C@H](C)C6)[nH]c54)cc2-3)[nH]1)C1C[C@@H](C)O[C@H](C)C1 (stereo partly drawn) [Example AU, Methyl {(1S)-1-[(2R,6R)-2,6-dimethyltetrahydro-2H-pyran-4-yl]-2-[(2S,5S)-2-(5-{2-[(2S,5S)-1-{(2S)-2-[(2R,6R)-2,6-dimethyltetrahydro-2H-pyran-4-yl]-2-[(methoxycarbonyl)amino]acetyl}-5-methylpyrrolidin-2-yl]-1,11-dihydroisochromeno[4′,3′:6,7]naphtho[1,2-d]imidazol-9-yl}-1H-imidazol-2-yl)-5-methylpyrrolidin-1-yl]-2-oxoethyl}carbamate]",16.4%,0.13 nM,0.008 nM,0.017 nM,
"CC[C@H]1CC[C@@H](c2nc3ccc4cc5c(cc4c3[nH]2)OCc2cc(-c3cnc([C@@H]4CC[C@H](C)N4C(=O)[C@@H](NC(=O)OC)C(C)C)[nH]3)ccc2-5)N1C(=O)[C@@H](NC(=O)OC)C1CCOCC1 [Comp 3, reference compound]",46.6%,14.1 nM,0.061 nM,,
"COC(=O)N[C@H](C(=O)N1[C@@H](C)CC[C@H]1c1nc2ccc3cc4c(cc3c2[nH]1)OCc1cc(-c2cnc([C@@H]3CC[C@H](C)N3C(=O)[C@@H](NC(=O)OC)[C@H]3C[C@@H](C)O[C@@H](C)C3)[nH]2)ccc1-4)C(C)C [Example AO, Methyl {(2S)-1-[(2S,5S)-2-(9-{2-[(2S,5S)-1-{(2S)-2-[(2R,6S)-2,6-dimethyltetrahydro-2H-pyran-4-yl]-2-[(methoxycarbonyl)amino]acetyl}-5-methylpyrrolidin-2-yl]-1H-imidazol-5-yl}-1,11-dihydroisochromeno[4′,3′:6,7]naphtho[1,2-d]imidazol-2-yl)-5-methylpyrrolidin-1-yl]-3-methyl-1-oxobutan-2-yl}carbamate]",50.3%,9.06 nM,0.017 nM,0.015 nM,
COC(=O)N[C@H](C(=O)N1[C@@H](C)CC[C@H]1c1nc2ccc3cc4c(cc3c2[nH]1)OCc1cc(-c2cnc([C@@H]3CC[C@H](C)N3C(=O)[C@@H](NC(=O)OC)C3C[C@@H](C)O[C@H](C)C3)[nH]2)ccc1-4)C(C)C (stereo partly shown) [Example AS],17.4%,0.732 nM,0.015 nM,0.026 nM,
"CC[C@H](C)[C@H](NC(=O)OC)C(=O)N1[C@@H](C)CC[C@H]1c1nc2ccc3cc4c(cc3c2[nH]1)OCc1cc(-c2cnc([C@@H]3CC[C@H](C)N3C(=O)[C@@H](NC(=O)OC)C3CCOCC3)[nH]2)ccc1-4 [Comp 12, reference compound]",5.64%,17.7 nM,0.032 nM,,1.28 nM
"COC(=O)N[C@H](C(=O)N1[C@@H](C)CC[C@H]1c1ncc(-c2ccc3c(c2)COc2cc4c(ccc5nc([C@@H]6CC[C@H](C)N6C(=O)[C@@H](NC(=O)OC)[C@H]6C[C@@H](C)O[C@@H](C)C6)[nH]c54)cc2-3)[nH]1)C(C)C [Example AM, Methyl {(2S)-1-[(2S,5S)-2-(5-{2-[(2S,5S)-1-{(2S)-2-[(2R,6S)-2,6-dimethyltetrahydro-2H-pyran-4-yl]-2-[(methoxycarbonyl)amino]acetyl}-5-methylpyrrolidin-2-yl]-1,11-dihydroisochromeno[4′,3′:6,7]naphtho[1,2-d]imidazol-9-yl}-1H-imidazol-2-yl)-5-methylpyrrolidin-1-yl]-3-methyl-1-oxobutan-2-yl}carbamate]",21.9%,8.06 nM,0.008 nM,0.008 nM,
"COC[C@H]1C[C@@H](c2ncc(-c3ccc4c(c3)COc3cc5c(ccc6nc([C@@H]7CC[C@H](C)N7C(=O)[C@@H](NC(=O)OC)C7C[C@@H](C)O[C@H](C)C7)[nH]c65)cc3-4)[nH]2)N(C(=O)[C@@H](NC(=O)OC)C2C[C@@H](C)O[C@H](C)C2)C1 (stereo partly drawn) [Example BH, Methyl {(1S)-1-[(2R,6R)-2,6-dimethyltetrahydro-2H-pyran-4-yl]-2-[(2S,5S)-2-(9-{2-[(2S,4S)-1-{(2S)-2-[(2R,6R)-2,6-dimethyltetrahydro-2H-pyran-4-yl]-2-[(methoxycarbonyl)amino]acetyl}-4-(methoxymethyl)pyrrolidin-2-yl]-1H-imidazol-5-yl}-1,11-dihydroisochromeno[4′,3′:6,7]naphtho[1,2-d]imidazol-2-yl)-5-methylpyrrolidin-1-yl]-2-oxoethyl}carbamate]",2.7%,0.612 nM,0.055 nM,,
